# Counter-ions that a name gives are not always drawn.
# Key:
# mouse P2Y10 = target: T1, mouse P2Y10 (Mus musculus, UniProt Q8BFU7); test: TGFα shedding assay, agonistic activity on P2Y10; format: cell-based; set-up: key: an activity that is 100 folds that of control compound 1 as +++++; an activity that is 10 folds that of control compound 1 as ++++; the activity of the control compound 1 (LPS18:1) as +++; an activity that is 1/10 as ++; an activity that is 1/100 as +; an activity below that as −; conditions: HEK293 cells transfected with mouse P2Y10 and AP labeled TGFα; activity relative to control compound 1 (LPS18:1) = +++
# T1 construct: expressed in transfected cells; host or cells: HEK293
# Description: (§1) [Test Example 1]Assay of Agonistic Activity by TGFα Shedding Assay
# (§2) HEK293 cells were suspended in the Dulbecco's modified Eagle's medium (DMEM) containing 10% fetal bovine serum (FCS) to exist in an amount of 2.0×10^5 cells/mL, and they were seeded in 60 mm dishes at 4 mL per dish. Transfection of different expression vectors was performed using LipofectAMINE 2000 (Invitrogen) after 24 hours of culture under the presence of 5% CO2. For each 60 mm dish, 1 μg of AP labeled TGFα plasmid vectors were used, and 1 μg of pCAGGS plasmid vectors of mouse GPR34, P2Y10 or GPR174 were used. The plasmid vectors were prepared by methods disclosed in Patent Documents 2 and 5. Note that the AP labeled TGFα is a protein comprising a membrane-bound pro-TGFα whose N terminal end is fused with human placental alkaline phosphatase, and the plasmid vector of the AP labeled TGFα may be produced based on the teaching of Tokumaru et al., J Cell Biol 151, 209-220 (2000). After 24 hours of transfection, the cells were peeled off using trypsin/EDTA, and they were re-suspended in a culture medium to form an amount of 2.0×10^4 cells/well to be seeded to a 96-well plate. Hanks' Balanced Salt Solution (HBSS, containing 5 mM HEPES) was used for the re-suspended solution when stimulating with the compound. After it was left still for 30 min., subject compounds of various concentrations were added and the solutions were left still for another 1 hour under the presence of 5% CO2. The 96-well plate was subjected to centrifugation (190×g, 3 min.), then 80 μl of supernatant was transferred to a different 96-well plate. A reaction buffer (40 mM Tris-HCl (pH 9.5)) containing 10 mM p-nitrophenyl phosphate (p-NPP) was added in an amount of 80 μL to the supernatant and cells. The OD405 was measured with a micro plate reader (background), then after heating at 37° C. for an hour, OD405 was re-measured. The AP activity for each well was obtained by subtracting the background from the second absorbance and plugging the difference into the following formula.
# (§3) In addition, the value obtained by subtracting the AP activity (%) of the non-stimulated group was used in the vertical axis to create a graph. The graphs of the test results for Example 3 (lysoPS sn-1-deoxy sn3 C3-ph-o-OBn-m-Oph) and Example 31 (lysoPS sn-1-OMe sn3 C3-ph-o-OBn-m-Oph) are shown in FIG. 1.
# (§4) The obtained activity is shown by plotting the compound concentration and AP activity (%), then representing the activity of the control compound 1 (LPS18:1) as +++, an activity that is 10 folds that of control compound 1 as ++++, an activity that is 100 folds that of control compound 1 as +++++, an activity that is 1/10 as ++, and an activity that is 1/100 as +, and an activity below that as −.
# mouse GPR34 = target: T2, mouse GPR34 (Mus musculus, UniProt Q9R1K6); test: TGFα shedding assay, agonistic activity on GPR34; format: cell-based; set-up: key to GPR34/LPS2 agonistic activity, TGFα shedding assay: an activity that is 100 folds that of control compound 1 as +++++; an activity that is 10 folds that of control compound 1 as ++++; the activity of the control compound 1 (LPS18:1) as +++; an activity that is 1/10 as ++; an activity that is 1/100 as +; an activity below that as −; conditions: for GPR34/LPS2 agonistic activity, TGFα shedding assay: HEK293 cells transfected with mouse GPR34 and AP labeled TGFα, activity relative to control compound 1 (LPS18:1) = +++
# T2 construct: expressed in transfected cells; host or cells: HEK293
# Description: as §1, §2, §3, §4
# mouse GPR174 = target: T3, mouse GPR174 (Mus musculus, UniProt Q3U507); test: TGFα shedding assay, agonistic activity on GPR174; format: cell-based; set-up: key: an activity that is 100 folds that of control compound 1 as +++++; an activity that is 10 folds that of control compound 1 as ++++; the activity of the control compound 1 (LPS18:1) as +++; an activity that is 1/10 as ++; an activity that is 1/100 as +; an activity below that as −; conditions: HEK293 cells transfected with mouse GPR174 and AP labeled TGFα; activity relative to control compound 1 (LPS18:1) = +++
# T3 construct: expressed in transfected cells; host or cells: HEK293
# Description: as §1, §2, §3, §4
# T2 sequence (Q9R1K6 whole entry): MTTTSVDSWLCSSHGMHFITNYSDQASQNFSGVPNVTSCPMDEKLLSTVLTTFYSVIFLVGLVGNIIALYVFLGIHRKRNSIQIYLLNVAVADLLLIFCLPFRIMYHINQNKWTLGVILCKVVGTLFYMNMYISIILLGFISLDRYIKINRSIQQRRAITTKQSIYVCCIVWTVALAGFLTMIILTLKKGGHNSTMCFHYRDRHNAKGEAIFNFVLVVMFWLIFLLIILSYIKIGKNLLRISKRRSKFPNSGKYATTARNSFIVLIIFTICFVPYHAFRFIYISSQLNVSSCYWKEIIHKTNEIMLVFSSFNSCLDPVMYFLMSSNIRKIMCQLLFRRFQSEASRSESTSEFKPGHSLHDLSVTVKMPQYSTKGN
# T1 sequence (Q8BFU7 whole entry): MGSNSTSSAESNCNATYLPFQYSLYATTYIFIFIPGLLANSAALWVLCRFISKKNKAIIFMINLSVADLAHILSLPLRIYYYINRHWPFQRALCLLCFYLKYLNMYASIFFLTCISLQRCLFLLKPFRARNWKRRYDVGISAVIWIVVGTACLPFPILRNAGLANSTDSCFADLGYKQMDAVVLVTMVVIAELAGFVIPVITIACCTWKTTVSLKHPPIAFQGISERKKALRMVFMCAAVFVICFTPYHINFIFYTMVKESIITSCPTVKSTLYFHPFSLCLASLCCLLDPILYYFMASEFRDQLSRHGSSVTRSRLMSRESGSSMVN
# T3 sequence (Q3U507 whole entry): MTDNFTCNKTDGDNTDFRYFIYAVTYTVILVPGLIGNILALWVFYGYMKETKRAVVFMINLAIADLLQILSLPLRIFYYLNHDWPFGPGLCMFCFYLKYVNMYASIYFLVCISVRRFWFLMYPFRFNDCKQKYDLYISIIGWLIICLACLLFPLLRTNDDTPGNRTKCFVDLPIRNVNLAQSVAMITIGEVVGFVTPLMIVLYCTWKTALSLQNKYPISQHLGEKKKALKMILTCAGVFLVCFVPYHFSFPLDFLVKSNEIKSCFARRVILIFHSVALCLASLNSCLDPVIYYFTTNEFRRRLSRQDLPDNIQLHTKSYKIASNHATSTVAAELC
Structure (SMILES),melting point,"P2Y10/LPS2 agonistic activity, TGFα shedding assay (mouse P2Y10)","GPR34/LPS2 agonistic activity, TGFα shedding assay (mouse GPR34)","GPR174/LPS3 agonistic activity, TGFα shedding assay (mouse GPR174)","receptor selectivity of agonist activity among GPR34, P2Y10, GPR174 (graphs of FIG. 1) (mouse GPR34; TGFα shedding assay, HEK293 cells, AP activity (%) vs concentration)"
"CCCCCCCC/C=C\CCCCCCCC(=O)OC[C@H](C)OP(=O)(O)OC[C@H](N)C(=O)O (as salt: TFA) [Example 2, (9Z)-Octadeca-9-enoic acid (2S)-2-[((2S)-2-amino-2-carboxy-ethoxy)-hydroxy-phosphoryloxy]-propyl ester]",133.5 to 134.5 °C,,,,
"C[C@H](COC(=O)CCc1ccccc1OCc1cccc(Oc2ccccc2)c1)OP(=O)(O)OC[C@H](N)C(=O)O (as salt: TFA) [Example 3, (2S)-2-amino-3-[hydroxyl-((1R)-1-methyl-2-{3-[2-(3-phenoxy-benzyloxy)-phenyl]-propionyloxy}-ethoxy)-phosphoryloxy]-propionic acid]",143.5 to 144.5 °C,,,,
"CCCCCCCC/C=C\CCCCCCCC(=O)OC[C@@H](COC)OP(=O)(O)OC[C@H](N)C(=O)O (as salt: TFA) [Example 4, (9Z)-Octadeca-9-enoic acid (2R)-2-[((2S)-2-amino-2-carboxy-ethoxy)-hydroxy-phosphoryloxy]-3-methoxy-propyl ester]",192.5 to 196 °C,,,,
"CCCCCCCC/C=C\CCCCCCCC(=O)OC[C@H](COC)OP(=O)(O)OC[C@H](N)C(=O)O (as salt: TFA) [Example 5, (9Z)-Octadeca-9-enoic acid (2S)-2-[((2S)-2-amino-2-carboxy-ethoxy)-hydroxy-phosphoryloxy]-3-methoxy-propyl ester]",149 to 150.5 °C,,,,
"CCCCCCCC/C=C\CCCCCCCC(=O)OC[C@@H](COCC)OP(=O)(O)OC[C@H](N)C(=O)O (as salt: TFA) [Example 6, (9Z)-Octadeca-9-enoic acid (2R)-2-[((2S)-2-amino-2-carboxy-ethoxy)-hydroxy-phosphoryloxy]-3-ethoxypropyl ester]",130.2 to 131 °C,,,,
N[C@@H](COP(=O)(O)O[C@@H]1CCCO[C@@H]1COC(=O)CCc1ccccc1OCc1cccc(Oc2ccccc2)c1)C(=O)O [Example 17],,−,++++,−,
N[C@@H](COP(=O)(O)OC[C@H]1OCCC[C@H]1OC(=O)CCc1ccccc1OCc1cccc(Oc2ccccc2)c1)C(=O)O [Example 18],,−,++++~+++++,−,
"CCCCCCCCCCCOc1ccccc1CCC(=O)OC[C@H]1OCC=C[C@@H]1OP(=O)(O)OC[C@H](N)C(=O)O [Example 19, (2S)-2-amino-3-(hydroxyl-{(2R,3S)-2-[3-(2-undecyloxy-phenyl)-propionyloxymethyl]-3,6-dihydro-2H-pyran-3-yloxy}-phosphoryloxy)-propionic acid]",,++,−,−,
"CCCCCCCC/C=C\CCCCCCCC(=O)OC[C@H]1OCCC[C@@H]1OP(=O)(O)OC[C@H](N)C(=O)O [Example 20, (9Z)-Octadeca-9-enoic acid (2R,3S)-3-[((2S)-2-amino-2-carboxy-ethoxy)-hydroxy-phosphoryloxy]-tetrahydro-pyran-2-ylmethyl ester]",,+,+++~++++,−,
"CCCCCCCCCCCOc1ccccc1CCC(=O)OC[C@H]1OCCC[C@@H]1OP(=O)(O)OC[C@H](N)C(=O)O [Example 21, (2S)-2-amino-3-(hydroxyl-{(2R,3S)-2-[3-(2-undecyloxy-phenyl)-propionyloxymethyl]-tetrahydro-pyran-3-yloxy}-phosphoryloxy)-propionic acid]",,++,−~++,−,

# Further lines, with some results ahead:
melting point,"P2Y10/LPS2 agonistic activity, TGFα shedding assay (mouse P2Y10)","GPR34/LPS2 agonistic activity, TGFα shedding assay (mouse GPR34)","GPR174/LPS3 agonistic activity, TGFα shedding assay (mouse GPR174)",Structure (SMILES),"receptor selectivity of agonist activity among GPR34, P2Y10, GPR174 (graphs of FIG. 1) (mouse GPR34; TGFα shedding assay, HEK293 cells, AP activity (%) vs concentration)"
,−,+++,−,"N[C@@H](COP(=O)(O)O[C@H]1CCCO[C@@H]1COC(=O)CCc1ccccc1OCc1cccc(Oc2ccccc2)c1)C(=O)O [Example 22, (2S)-2-amino-3-[hydroxyl-((2R,3S)-2-{3-[2-(3-phenoxy-benzyloxy)-phenyl]-propionyloxymethyl}-tetrahydropyran-3-yloxy)-phosphoryloxy]-propionic acid]",
,++,++,−,"CCCCCCCC/C=C\CCCCCCCC(=O)OC[C@H]1OCC=C[C@@H]1OP(=O)(O)OC[C@H](N)C(=O)O [Example 23, (9Z)-Octadeca-9-enoic acid (2R,3S)-3-[((2S)-2-amino-2-carboxy-ethoxy)-hydroxy-phosphoryloxy]-3,6-dihydro-2H-pyran-2-ylmethyl ester]",
,++~+++,+++,−,"N[C@@H](COP(=O)(O)O[C@H]1C=CCO[C@@H]1COC(=O)CCc1ccccc1OCc1cccc(Oc2ccccc2)c1)C(=O)O [Example 24, (2S)-2-amino-3-[hydroxy-((2R,3S)-2-{3-[2-(3-phenoxy-benzyloxy)-phenyl]-propionyloxymethyl}-3,6-dihydro-2H-pyran-3-yloxy)-phosphoryloxy]-propionic acid]",
,+++~++++,+~++,−,"CCCCCCCCCCCOc1ccccc1CCC(=O)OC[C@H]1OCC=C[C@H]1OP(=O)(O)OC[C@H](N)C(=O)O [Example 25, (2S)-2-amino-3-(hydroxy-{(2R,3R)-2-[3-(2-undecyloxy-phenyl)-propionyloxymethyl]-3,6-dihydro-2H-pyran-3-yloxy}-phosphoryloxy)-propionic acid]",
,++,+++~++++,−,"N[C@@H](COP(=O)(O)O[C@@H]1C=CCO[C@@H]1COC(=O)CCc1ccccc1OCc1cccc(Oc2ccccc2)c1)C(=O)O [Example 26, (2S)-2-amino-3-[hydroxyl-((2R,3R)-2-{3-[2-(3-phenoxybenzyloxy)-phenyl]-propionyloxymethyl}-3,6-dihydro-2H-pyran-3-yloxy)-phosphoryloxy]-propionic acid]",
,+~++,+++++,−,"COC[C@H](COC(=O)CCc1ccccc1OCc1cccc(Oc2ccccc2)c1)OP(=O)(O)OC[C@H](N)C(=O)O [Example 31, (2S)-2-amino-3-[hydroxy-((1R)-1-methoxymethyl-2-{3-[2-(3-phenoxy-benzyloxy)-phenyl]-propionyloxy}-ethoxy)-phosphoryloxy]-propionic acid]",agonists having selectivity against GPR34
